The supplement of paper PMC10307832

Legend:
Test in all cases: relative viability (nuclei count vs DMSO), 5 days (fraction); higher = more cells survive
[1] = compound: C[C@]1(c2nc3c(C(N)=O)cccc3[nH]2)CCCN1 [Veliparib] + CC1(C)CCC(c2ccc(Cl)cc2)=C(CN2CCN(c3ccc(C(=O)NS(=O)(=O)c4ccc(N[C@H](CCN5CCOCC5)CSc5ccccc5)c(S(=O)(=O)C(F)(F)F)c4)cc3)CC2)C1 [Navitoclax] (partner 0.5 µM)
How it was run: (§1)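 One day after seeding in 1536-well plates, lung cancer cell lines were dosed by pin tool. Dosing was either single-drug or a fixed anchor-drug dose plus five library-drug doses (not always all listed) in √10 steps. After 5 days, nuclei were stained in one fix-and-stain step and counted on 4× images, and relative viability is the nuclei count of treated wells over that of vehicle wells, given as the median of duplicate plates.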

[2] = compound: COC1=CC=C(C=C1)CN2C=CC3=C2C=C(C=C3)C(=O)NO + N=C(N)NC(=N)NCCc1ccccc1 [Phenformin] (partner 250 µM)
How it was run: as §1

[3] = compound: COC1=CC=C(C=C1)CN2C=CC3=C2C=C(C=C3)C(=O)NO + CC(=O)Nc1cccc(-n2c(=O)n(C3CC3)c(=O)c3c(Nc4ccc(I)cc4F)n(C)c(=O)c(C)c32)c1 [Trametinib] (partner 0.02 µM)
How it was run: as §1

[4] = compound: COC1=CC=C(C=C1)CN2C=CC3=C2C=C(C=C3)C(=O)NO + Nc1ncn([C@H]2C[C@H](O)[C@@H](CO)O2)c(=O)n1 [Decitabine] (partner 2 µM)
How it was run: as §1

Cell Line | relative viability ([1]; first compound 0.02 µM) | relative viability ([1]; first compound 0.06325 µM) | relative viability ([1]; first compound 0.2 µM) | relative viability ([1]; first compound 0.6325 µM) | relative viability ([1]; first compound 2 µM) | relative viability ([2]; first compound 0.253 µM) | relative viability ([2]; first compound 0.8 µM) | relative viability ([2]; first compound 2.53 µM) | relative viability ([2]; first compound 8 µM) | relative viability ([3]; first compound 0.253 µM) | relative viability ([3]; first compound 0.8 µM) | relative viability ([3]; first compound 2.53 µM) | relative viability ([3]; first compound 8 µM) | relative viability ([4]; first compound 0.253 µM) | relative viability ([4]; first compound 0.8 µM) | relative viability ([4]; first compound 2.53 µM) | relative viability ([4]; first compound 8 µM) | relative viability ([2]; first compound 0.08 µM) | relative viability ([3]; first compound 0.08 µM) | relative viability ([4]; first compound 0.08 µM)
Calu-6 | 0.946 | 0.871 | 0.914 | 0.824 | 0.867 |  |  |  |  |  |  |  |  |  |  |  |  |  |  | 
NCI-H661 |  |  |  |  |  | 0.271 | 0.313 | 0.272 | 0.29 | 0.634 | 0.611 | 0.533 | 0.457 | 0.591 | 0.61 | 0.519 | 0.44 |  |  | 
NCI-H1975 | 1.07 | 1.14 | 1.22 | 0.942 | 0.981 | 0.417 | 0.431 | 0.407 | 0.399 | 0.348 | 0.359 | 0.413 | 0.349 | 0.364 | 0.443 | 0.456 | 0.388 | 0.442 | 0.308 | 0.349
COR-L23 | 1.15 | 0.957 | 0.899 | 0.86 | 0.999 | 0.441 | 0.437 | 0.447 | 0.422 | 0.617 | 0.627 | 0.615 | 0.522 | 0.465 | 0.456 | 0.407 | 0.357 | 0.369 | 0.5 | 0.378
HCC-15 | 0.723 | 0.702 | 0.719 | 0.721 | 0.65 | 0.515 | 0.486 | 0.483 | 0.408 | 0.355 | 0.424 | 0.41 | 0.372 | 0.718 | 0.742 | 0.714 | 0.642 | 0.344 | 0.334 | 0.529
NCI-H1651 | 1.04 | 1.05 | 1.1 | 1.01 | 0.916 | 0.302 | 0.39 | 0.325 | 0.275 | 0.917 | 0.867 | 0.787 | 0.828 | 0.52 | 0.616 | 0.566 | 0.579 | 0.349 | 0.798 | 0.584
CAL-12T | 1.38 | 1.03 | 1.3 | 1.2 | 1.32 | 0.563 | 0.589 | 0.581 | 0.493 | 0.347 | 0.33 | 0.335 | 0.301 |  |  |  |  | 0.643 | 0.387 | 
LK-2 | 0.713 | 0.876 | 1.24 | 0.831 | 0.823 | 0.462 | 0.579 | 0.396 | 0.24 | 0.694 | 0.658 | 0.686 | 0.646 | 0.303 | 0.295 | 0.296 | 0.224 |  | 0.534 | 
